These results are taken from patent US9352004B2, “Muscle-derived cells (MDCs) for treating muscle- or bone-related injury or dysfunction” (University of Pittsburgh—Of the Commonwealth System of …, priority 1998, dated 2016).

The subject of data set [1] is bladder. The conditions noted are these: rat, in vivo. How it is done: Micturition Pattern Measurement: Urination pattern profiles were obtained using a specialized metabolic cage which deflects voided urine for collection and quantification over a 24 hour period. Micturition parameters evaluated in the described experiments included total urine output/24 hours, number of micturitions/24 hours and mean volume per micturition (M. D. Chancellor et al., 1994, J. Urol., 151:250-254; T. Watanabe et al., 1996, J. Urol., 156:1507-1510).
To first assess the role of intravesicle NO on cyclophosphamide-induced cystitis, female S.D. rats received a single intraperitoneal injection of CYP (100 mg/kg) or vehicle. Voiding parameters (mean voided volume and number of voids) were then monitored for 24 hours in a metabolic cage. Forty-eight hours after CYP injection, bladder function was studied using continuous saline infusion (0.04 ml/min) cystometry via PE-50 transurethral catheter under urethane anesthesia.

Data set [2] concerns bladder wall. The data set is classed as in vivo, rat. The conditions noted are these: 100 μM TBH4, control areas of the bladder.
Procedure: For gene therapy experiments, myoblasts were transduced with the adenovirus containing the human inducible nitric oxide synthase (iNOS) gene at a multiplicity of infection of 50 (MOI=50) and were injected into the bladder and studied after 2 to 7 days.
The bladder was injected with a similar solution; however, the cell concentration ranged from 1.33×10^5 to 1×10^6 cells per 10 μl injection. Transduced myoblasts were prepared by incubating them for 24 hours with adenovirus vector containing the iNOS gene at a multiplicity of infection of 50 virus particles per cell. Immunohistochemical staining was performed on the cultured cells to ensure adequate infection and iNOS protein production.
NO release in the bladder and penis was measured by placing the tip of a Naflon-coated porphyrinic microsensor (dia. 10 μM; detection limit, 5 nM; response time, 1 ms) directly on the bladder surface (mucosal and serosal) and on the corporal cavernosum, respectively.
The test system of data set [3] is myoblasts. The experiment in a line: Effect of growth factors on myoblast proliferation and fusion in vitro. It is filed as cell-based. The conditions noted are these: 1, 10 and 100 ng/ml, 48 and 96 hours. Here is the method: Several growth factors, including acidic and basic fibroblast growth factors (aFGF and bFGF); epidermal growth factor (EGF); insulin-like growth factor-1 (IGF-1); platelet derived growth factor (PDGF); transforming growth factor β or α (TGF-β or TGF-α); and nerve growth factor (NGF) have been investigated for their ability to enhance the myogenic activity of muscle cells in vitro. Myoblasts were cultured with these trophic factors at different concentrations (1, 10 and 100 ng/ml), and the myoblast proliferation and differentiation were monitored at 48 and 96 hours post-incubation.

Data set [4] concerns meniscal fibrochondrocytes. The experiment in a line: Growth factors on meniscal fibrochondrocytes in vitro. It is filed as cell-based. To be noted: for expression of collagen and non-collagen proteins: meniscal fibrochondrocytes. An excerpt: In vitro data detail the effects of numerous growth factors on fibroblast proliferation and collagen production.
Data set [5] relates to injured muscle. The experiment in a line: Muscle healing and twitch/tetanic strength in vivo after muscle contusion, laceration or strain. To be noted: for number of regenerating myofibers in vivo: direct injection into injured muscle (laceration, contusion, strain). Set-up: species or system mouse; key to twitch strength / tetanic strength: (+) improvement in strength vs. non-injected muscles; (−) no improvement in strength vs. non-injected muscles. Here is the method: Briefly, the muscle laceration was performed by cutting the gastrocnemius muscle of a mouse with scissors at 60% of its length from its distal insertion, 75% of its width, and 50% of its thickness. The muscle contusion was made by dropping a 16 gram ball through an impactor from a height of 100 centimeters onto the mouse's gastrocnemius muscle, and the muscle strain was performed by elongating the muscle-tendon unit to a pre-determined strain point at the rate of 1 cm/min.
In order to evaluate muscle healing following injury, histological staining (hematoxylin-eosin) in conjunction with immunohistochemical techniques were employed to assess the expression of desmin and vimentin. Since desmin is a cytoskeletal protein uniformly expressed in regenerating myofibers, it has been used to specifically locate regenerating myofibers. Vimentin is expressed in mononucleated fibrocytes and macrophages and has been used herein as a marker for fibrosis. […]

Data set [6] deals with urethral smooth muscle. The data set is described as follows: Intraurethral NO donors: urethral perfusion pressure and isovolumetric bladder pressure. To be noted: rat, in vivo, iv. How it is done:
To first assess the role of NO donors on smooth muscle, urethral perfusion pressure and isovolumetric bladder pressure were measured with catheters inserted through the bladder dome in urethane anesthetized female S.D. rats (250-300 grams), (n=9). The catheter assembly was wedged in the bladder neck to block passage of fluid between the bladder and urethra without affecting the nerve supply to the organs. The external urethra was not catheterized. Responses were examined in the control state at an urethral saline infusion speed of 0.075 ml/min. After blocking striated urethral sphincter with intravenous alpha-bungarotoxin administration (100 mcg/kg), intraurethral drugs were administered.

“Also recorded” adds a separate entry of the source. Marks after values point to notes of the source that are not given here.

As for `O=P1(N(CCCl)CCCl)NCCCO1` (stereo not shown) [CYP, cyclophosphamide], in data set [1], the “number of micturitions during the 24 hours after CYP injection” value was determined as 117±86, the total micturition volume was determined as 20.5 ± 9.2 mL and the “voiding frequency after 7 days” value came to 38±4.
Regarding `C[C@H](O)[C@H](O)[C@H]1CNc2nc(N)[nH]c(=O)c2N1` [TBH4, tetrahydrobiopterin], in data set [2], the “duration of NO release spike” value was < 5 s and the “spike in NO release” value was 1 to 5 nM.
Turning to EGF: epidermal growth factor, in data set [3], the “Fusion (differentiation into myotubules)” value is recorded as “Inhibit” and the Proliferation result is “Inhibit”. In data set [4], the “proliferation of the meniscal fibrochondrocytes” value is given as “improve”; the “expression of collagen and non-collagen proteins” value is reported as “improve”.
In the case of IGF: insulin-like growth factor-1, the figures for the “Fusion (differentiation into myotubules)” value in data set [3] and in data set [3] (listed as IGF-1) were “Stimulate” and “increase myoblast differentiation into myotubules”, respectively. Further, the Proliferation entry in data set [3] is listed as “Stimulate”; in data set [3] (listed as IGF-1), “significantly enhanced”. The tetanic strength result in data set [5] (Muscle contusion), in data set [5] (Muscle laceration) and in data set [5] (Muscle strain) was “+/+” throughout. Also, the twitch strength entry in data set [5] (Muscle contusion), in data set [5] (Muscle laceration) and in data set [5] (Muscle strain) was “+/+” throughout. For the same molecule, the “number of regenerating myofibers in vivo” value in data set [5] is recorded as “increase the number of regenerating myofibers”.
As for NGF: nerve growth factor, the “Fusion (differentiation into myotubules)” value in data set [3] is “increase myoblast differentiation into myotubules; also recorded: Stimulate”. The Proliferation entry in data set [3] was “significantly enhanced; also recorded: Stimulate”. Besides, the figures for the tetanic strength result in data set [5] (Muscle contusion), in data set [5] (Muscle laceration) and in data set [5] (Muscle strain) were “+/+*”, “−/−” and “−”, respectively. The results for the twitch strength result in data set [5] (Muscle contusion), in data set [5] (Muscle laceration) and in data set [5] (Muscle strain) were “+/+*”, “−/−” and “+”, respectively. Moreover, the “number of regenerating myofibers in vivo” value in data set [5] is recorded as “increase the number of regenerating myofibers”.
Take PDGF: in data set [3], the “Fusion (differentiation into myotubules)” value was “Inhibit” and the Proliferation result is on record as “Inhibit”. In data set [4], the “proliferation of the meniscal fibrochondrocytes” value is reported as “improve”; the “expression of collagen and non-collagen proteins” value is reported as “improve”.
Regarding TGF-α: transforming growth factor α, in data set [3], the “Fusion (differentiation into myotubules)” value was “Inhibit” and the Proliferation result was “Inhibit”. In addition, in data set [4], the “proliferation of the meniscal fibrochondrocytes” value is listed as “improve”; the “expression of collagen and non-collagen proteins” value is listed as “improve”.
Take TGF-β: in data set [3], the “Fusion (differentiation into myotubules)” value is listed as “Inhibit” and the Proliferation entry is “Inhibit”.
As to a-FGF: acidic fibroblast growth factor, in data set [3], the “Fusion (differentiation into myotubules)” value is listed as “Stimulate” and the Proliferation result is reported as “Inhibit”. Moreover, in data set [3] (listed as aFGF), the “Fusion (differentiation into myotubules)” value is listed as “increase myoblast differentiation into myotubules”.
On to alpha-bungarotoxin, for which the “high frequency oscillations of urethral pressure” value in data set [6] is given as “abolished”.
Turning to b-FGF: basic fibroblast growth factor, the “Fusion (differentiation into myotubules)” value in data set [3] was “Stimulate”; in data set [3] (listed as bFGF) it was “increase myoblast differentiation into myotubules”. Besides, the Proliferation result in data set [3] is listed as “significantly enhanced; also recorded: Stimulate”. Besides, the tetanic strength entry in data set [5] (Muscle contusion), in data set [5] (Muscle laceration) and in data set [5] (Muscle strain) was “+/+” throughout. The twitch strength entry in data set [5] (Muscle contusion), in data set [5] (Muscle laceration) and in data set [5] (Muscle strain) was “+/+” in each case. Also, the “number of regenerating myofibers in vivo” value in data set [5] was “increase the number of regenerating myofibers”. Also, the “proliferation of the meniscal fibrochondrocytes” value in data set [4] was “improve”. Also, the “expression of collagen and non-collagen proteins” value in data set [4] is on record as “improve”.
